Here are results for one compound from publication PMC9177418, “Global analysis of biosynthetic gene clusters reveals conserved and unique natural products in entomopathogenic nematode-symbiotic bacteria” (Nature Chemistry, 2022).

Holding throughout (type): biochemical
The target in assay [1] is T1, yeast 20S proteasome β5 subunit (chymotrypsin-like) (Saccharomyces cerevisiae, UniProt P30656).
T1 construct: gene PRE2; purified yeast 20S proteasome core particle (yCP); with other subunits of the yeast 20S proteasome core particle (α1–7β1–7β1–7α1–7)
T1 sequence (P30656 76-287): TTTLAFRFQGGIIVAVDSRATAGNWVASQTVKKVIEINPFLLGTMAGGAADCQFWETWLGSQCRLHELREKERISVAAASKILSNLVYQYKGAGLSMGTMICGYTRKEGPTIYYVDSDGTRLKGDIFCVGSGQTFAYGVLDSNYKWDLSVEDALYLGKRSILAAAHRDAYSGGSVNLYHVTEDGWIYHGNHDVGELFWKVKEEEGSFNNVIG
Briefly: X-ray crystal structure at […] Å; fluorogenic Suc-Leu-Leu-Val-Tyr-AMC inhibition assay with purified yCP.

Assay [2] has as its target T2, yeast 20S proteasome β2 subunit (trypsin-like) (Saccharomyces cerevisiae, UniProt P25043).
T2 construct: gene PUP1; purified yeast 20S proteasome core particle (yCP); with other subunits of the yeast 20S proteasome core particle (α1–7β1–7β1–7α1–7)
T2 sequence (P25043 30-261): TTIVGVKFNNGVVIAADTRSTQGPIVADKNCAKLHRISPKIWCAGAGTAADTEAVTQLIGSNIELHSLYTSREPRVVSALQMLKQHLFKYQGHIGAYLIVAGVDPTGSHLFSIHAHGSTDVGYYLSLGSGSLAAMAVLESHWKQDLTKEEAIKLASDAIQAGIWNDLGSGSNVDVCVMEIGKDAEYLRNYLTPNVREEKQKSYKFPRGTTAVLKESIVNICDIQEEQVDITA
As to the kind of experiment: X-ray crystal structure ([…] soak; ligand map diffuse at β[…]); fluorogenic inhibition assay with purified yCP.

For assay [3], the target named is T3, yeast 20S proteasome β1 subunit (caspase-like) (Saccharomyces cerevisiae, UniProt P38624).
T3 construct: gene PRE3; purified yeast 20S proteasome core particle (yCP); with other subunits of the yeast 20S proteasome core particle (α1–7β1–7β1–7α1–7)
T3 sequence (P38624 20-215): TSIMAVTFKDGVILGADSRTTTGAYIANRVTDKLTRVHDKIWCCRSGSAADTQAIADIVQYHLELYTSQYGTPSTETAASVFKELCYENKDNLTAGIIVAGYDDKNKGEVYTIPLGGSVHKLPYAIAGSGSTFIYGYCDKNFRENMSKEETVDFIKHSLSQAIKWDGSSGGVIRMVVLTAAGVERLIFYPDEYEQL
The description is as above.

Molecules are shown by their SMILES.

With `CC(C)[C@@H]1C(=O)O[C@H]1C(=O)O` [compound 1, 3-isopropyl-4-oxo-2-oxetanecarboxylic acid], the IC50 in assay [1] is 6.2 µM; in assay [2], 60 µM; in assay [3], 625 µM.

For orientation: IC50 means the concentration that gives 50% inhibition. Low readings indicate greater potency, high ones weaker potency.
